Results published in a compilation of properties of binary mixtures (doi:10.1016/j.molliq.2013.10.014).

Experiment: xn = mol fraction of the nth substance listed
Settings: 100 kPa

c1ccsc1 + CCCC[n+]1ccn(C)c1.O=S(=O)([N-]S(=O)(=O)C(F)(F)F)C(F)(F)F
viscosity [mPa·s]
Settings	x1 = 0.089	x1 = 0.276	x1 = 0.336	x1 = 0.561	x1 = 0.77	x1 = 1
298.15 K	42.6	26.6	23.2	–	6.86	–
308.15 K	–	–	16.58	10.95	5.35	0.585
318.15 K	20.8	13.9	12.37	8.45	4.29	0.525
328.15 K	15.53	10.66	9.54	6.72	3.52	0.47

c1ccccc1 + CCCC[n+]1ccn(C)c1.O=S(=O)([O-])C(F)(F)F
x1 = 1
Settings	viscosity [mPa·s]
298.15 K	0.605
328.15 K	0.363

c1ccccc1 + CC[n+]1ccn(C)c1.O=S(=O)([N-]S(=O)(=O)C(F)(F)F)C(F)(F)F
x1 = 1
Settings	viscosity [mPa·s]
298.15 K	0.605
308.15 K	0.527
318.15 K	0.466
328.15 K	0.363

CCCC[n+]1ccn(C)c1.O=S(=O)([O-])C(F)(F)F + c1ccccc1
viscosity [mPa·s]
Settings	x2 = 0	x2 = 0.122	x2 = 0.304	x2 = 0.353	x2 = 0.467	x2 = 0.573
298.15 K	–	–	37.2	32.8	19.8	–
308.15 K	56.4	–	–	22.6	14.22	9.37
318.15 K	38.3	29.2	18.23	16.33	–	–
328.15 K	27.3	21.2	–	12.3	–	5.71

CC[n+]1ccn(C)c1.O=S(=O)([N-]S(=O)(=O)C(F)(F)F)C(F)(F)F + c1ccccc1
viscosity [mPa·s]
Settings	x2 = 0	x2 = 0.135	x2 = 0.339	x2 = 0.471	x2 = 0.492
298.15 K	33	–	–	11.41	10.4
308.15 K	23.7	18.44	11.75	8.65	7.98
318.15 K	17.69	14.02	9.11	–	6.31
328.15 K	–	10.93	–	5.5	5.16

CCCC[n+]1ccn(C)c1.O=S(=O)([N-]S(=O)(=O)C(F)(F)F)C(F)(F)F + c1ccsc1
x2 = 0
Settings	viscosity [mPa·s]
298.15 K	51.32
308.15 K	34.4
318.15 K	24.4
